# In patent US10010535B2, “Desferrithiocin analogs and uses thereof” (University of Florida Research Foundation, Incorporated, priority 2013, dated 2018):
# Read-outs that look alike come from different tables or passages of the source.
# How the values were obtained:
# urinary Kim-1 excretion [1] = conditions: for renal toxicity (Kim-1, BUN, SCr), summary: rat, in vivo
# Description: The compounds were administered to the rats po as their monosodium salts, prepared as described above, twice daily at a dose of 237 μmol/kg/dose (474 μmol/kg/d) for up to 7 d. The studies were performed on rats with normal iron stores. The rats were fasted overnight and were given the first dose of the compound first thing in the morning. The rats were fed ˜3 h post-dose and had access to food for ˜5 h before being fasted overnight.
# The rats were housed in individual metabolic cages. […] A baseline (day 0) urine sample was collected and assessed for its Kim-1 content; each animal served as its own control. The urine was collected chilled as previously described (Bergeron et al., “Desferrithiocin Analog Iron Chelators: Iron Clearing Efficiency, Tissue Distribution, and Renal Toxicity.” Biometals, 2011, 24, 239-258).
# The chilled urine was collected, vortexed, and warmed to room temperature; any sediment in the samples was allowed to settle. Kim-1 content was assessed using a Rat Kim-1 Rapid Test Kit according to the manufacturer's instructions. The result was read using a ReaScan Test Reader. […] Data are presented as the mean±the standard error of the mean; p-values were generated via a one-tailed Student's t-test in which the inequality of variances was assumed; and a p-value of <0.05 was considered significant.
# Assessment of chelator-induced impaired renal function has traditionally relied on the detection of a rise in blood urea nitrogen (BUN) and/or serum creatinine (SCr). However, because of the functional reserve of the kidney, these parameters are often unreliable indicators of acute kidney injury; the ultimate answer requires histopathology. […] BioAssay Works has recently developed RenaStick, a direct lateral flow immunochromato-graphic assay, which allows for the rapid detection (less than 30 minutes) and quantitation of urinary Kim-1 (rat) or KIM-1 (human) excretion (Vaidya et al., “A Rapid Urine Test for Early Detection of Kidney Injury.” Kidney. Int. 2009, 76, 108-114). […] The studies were performed on rats with normal iron stores; each animal served as their own control.
# [2] = 1H NMR hydrogen-deuterium exchange study; type: physicochemical; conditions: 25° C., pH 7.0, phosphate buffer (0.1 M)
# Description: The ratio of the (unexchanged) to the (original) was measured by the diminution of δ 6.33 (d, H-3′, J=2.3) relative to the integration of δ 6.39 (d, H-5′, J=9.0) at time points to 104 min. […] (unexchanged) to the [I-1] (original) was measured by the diminution of δ 6.41 (d, H-4′, J=2.3) relative to the integration of δ 7.54 (d, H-6′, J=2.3) at time points to 16 h. Plots of the natural log of [compound]
# Quinone formation could result in redox cycling and, at a cellular level, untoward side effects. […] The exchange rate order is understandable.
# [3] = Octanol-water partition, shake flask (log Papp); type: physicochemical; conditions: pH 7.4, Tris buffer
# Description: The partition values between octanol and water (at pH 7.4, Tris buffer) were determined using a “shake flask” direct method of measuring log Papp values (Sangster et al., Octanol-Water Partition Coefficients: Fundamentals and Physical Chemistry; John Wiley and Sons: West Sussex, England, 1997; Vol. 2). The fraction of compound in the octanol is then expressed as log Papp. […] This is likely due to the presence of the aromatic nitrogen, a moderately good hydrogen bond accepter, on the DFT analogs.
# [4] = Job's plot stoichiometry of Fe(III) complexes; type: binding; conditions: [DFT analog]+[Fe(III)]=1.0 mM, Tris-HCl pH 7.4; theoretical 0.667 for 2:1
# Description: Solutions containing DFT analog/Fe(III) at different ratios were prepared such that [DFT analog]+[Fe(III)]=1.0 mM in Tris-HCl buffer at pH 7.4. The theoretical mole fraction maximum for a 2:1 DFT analog:Fe complex is 0.667 (indicated by an arrow).
# In each instance, the DFT analogs formed 2:1 complexes with Fe(III). […] A 100 mM Tris HCl buffer was used to maintain the pH at 7.4. Solutions containing different DFT analog/Fe(III) ratios were prepared by mixing appropriate volumes of 1.0 mM DFT analog solution and 1.0 mM Fe(III)-nitriloacetate (NTA) in Tris-HCl buffer. The 1.0 mM Fe(III)-NTA solution was prepared immediately prior to use by dilution of a 41.6 mM Fe(III)-NTA stock solution with the Tris HCl buffer, whereas the DFT analog stock solution was prepared by dissolving the DFT analog as its monosodium salt in Tris HCl buffer at pH 7.4. The Fe(III)-NTA stock solution was prepared by mixing equal volumes of […] of FeCl3 and 180 mM trisodium NTA. The iron content of the Fe(III)-NTA solution was verified by atomic absorption spectrophotometry (AAS).
# iron excretion [5] = conditions: cited from earlier work; for relative percentages of the iron excreted in the bile and urine: rodents
# iron excretion [6] = experiment: Iron-clearing efficiency in iron-overloaded primates (fecal and urine samples); type: in vivo, Cebus apella monkeys
# Description: At least 20 half-lives, 60 days (Wood et al., “The Metabolism of Iron-Dextran Given As a Total-Dose Infusion to Iron Deficient Jamaican Subjects.” Br. J. Hamaetol. 1968, 14, 119-129), elapsed before any of the animals were used in experiments evaluating iron-chelating agents.
# Briefly, the collections began 4 days prior to the administration of the test compound and continued for an additional 5 days after the compound was given. Iron concentrations were determined by flame absorption spectroscopy as presented in other publications (Bergeron et al., “A Comparative Evaluation of Iron Clearance Models.” Ann. N.Y. Acad. Sci. 1990, 612, 378-393; Bergeron et al., “Synthesis and Biological Evaluation of Naphthyldesferrithiocin Iron Chelators.” J. Med. Chem. 1996, 39, 1575-1581).
# In the text below, the term “iron-clearing efficiency” (ICE) is used as a measure of the amount of iron excretion induced by a chelator. The ICE, expressed as a percent, is calculated as (compound-induced iron excretion/theoretical iron excretion)×100. To illustrate, the theoretical iron excretion after administration of one millimole of desferrioxamine B mesylate (DFO) (FIG. 3), a hexadentate chelator that forms a 1:1 complex with Fe(III), is one milli-g-atom of iron. Two millimoles of desferrithiocin (DFT) (Table 1), a tridentate iron chelator that forms a 2:1 complex with Fe(III), are required for the theoretical excretion of one milli-g-atom of iron. The theoretical iron outputs of the chelators were generated on the basis of a 2:1 compound:iron complex. The efficiencies in the rats and monkeys were calculated as set forth elsewhere (Bergeron et al., “Effects of C-4 Stereochemistry and C-4′ Hydroxylation on the Iron Clearing Efficiency and Toxicity of Desferrithiocin Analogs.” J. Med. Chem. 1999, 42, 2432-2440; Bergeron et al., “HBED: A Potential Alternative to Deferoxamine for Iron-Chelating Therapy.” Blood 1998, 91, 1446-1452).
# iron excretion [7] = conditions: po 75 μmol/kg, cited from earlier work; for relative percentages of the iron excreted in the feces and urine: primates
# [8] = in vivo; cited from earlier work
# [9] = oral; cited from earlier work
# urinary Kim-1 excretion [10] = conditions: cited from earlier work
# [11] = day 8, after 237 μmol/kg twice daily × 7 d
# [12] = po twice daily 237 μmol/kg/dose × 7 d
# [13] = po once daily 28 d, once daily 384 μmol/kg/d × 10 d, twice daily 237 μmol/kg/dose × 7 d
smiles,measurement,setting,value
"C[C@]1(C(=O)O)CSC(c2ncc(O)cc2O)=N1 [I-1, (S)-4,5-Dihydro-2-(3,5-dihydroxy-2-pyridinyl)-4-methyl-4-thiazolecarboxylic Acid]",BUN,urinary Kim-1 excretion [1]; [11],13 ± 2 mg/dL
same,SCr,urinary Kim-1 excretion [1]; [11],0.5 ± 0.1 mg/dL
same,"renal toxicity (Kim-1, BUN, SCr), summary",urinary Kim-1 excretion [1],some nephrotoxicity
same,"Exchange Rate (s^−1), hydrogen-deuterium exchange",[2],3.3e-06 s⁻¹
same,LogPapp,[3],−1.68
same,observed mole fraction maximum in Job's plot,[4],0.669
"COCCOCCOc1cnc(C2=N[C@@](C)(C(=O)O)CS2)c(O)c1 [I-2, (S)-4,5-Dihydro-2-[3-hydroxy-5-(3,6-dioxaheptyloxy)-2-pyridinyl]-4-methyl-4-thiazolecarboxylic Acid]",survival of dosing period,"urinary Kim-1 excretion [1]; po twice daily 237 μmol/kg/dose (474 μmol/kg/d), up to 7 d, rats with normal iron stores",All of the animals survived the compound dosing regimen
same,BUN and SCr,urinary Kim-1 excretion [1]; [12],well within the normal range
same,urinary Kim-1 excretion versus baseline (day 0),urinary Kim-1 excretion [1]; [12],remained within error of that of the baseline (day 0) levels
same,"renal toxicity (Kim-1, BUN, SCr), summary",urinary Kim-1 excretion [1],little to no impact on renal function
same,"Exchange Rate (s^−1), hydrogen-deuterium exchange",[2],No change and none and No exchange
same,LogPapp,[3],−1.59
same,observed mole fraction maximum in Job's plot,[4],0.676
"C[C@]1(C(=O)O)CSC(c2ccccc2O)=N1 [compound 2, desazadesferrithiocin]",Rodent Iron-Clearing Efficiency (%),"iron excretion [5]; po 150 μmol/kg, solubilized in 40% Cremophor RH-40/water",2.7±0.5%
same,relative percentages of the iron excreted in the bile and urine,"iron excretion [5]; po 150 μmol/kg, 40% Cremophor RH-40/water",100/0
same,"Performance ratio (PR), mean ICEprimates/ICErodents",iron excretion [6]; primates po / rodents po,8.0
same,LogPapp,[3],−0.34
same,Primate Iron-Clearing Efficiency (%),iron excretion [7],21.5±12%
same,relative percentages of the iron excreted in the feces and urine,iron excretion [7],76/24
same,gastrointestinal toxicity,[8],serious gastrointestinal (GI) problems
same,nephrotoxicity,[8],not overtly nephrotoxic
"COCCOCCOCCOc1cccc(C2=N[C@@](C)(C(=O)O)CS2)c1O [compound 5, (S)-4,5-dihydro-2-[2-hydroxy-3-(3,6,9-trioxadecyloxy)]-4-methyl-4-thiazolecarboxylic acid]",nephrotoxicity,[9],the renal toxicity virtually disappeared
COCCOCCOc1ccc(C2=N[C@@](C)(C(=O)O)CS2)c(O)c1 [compound 7],Rodent Iron-Clearing Efficiency (%),"iron excretion [5]; po 300 μmol/kg, capsules, 48-h sample collection",26.7±4.7%
same,relative percentages of the iron excreted in the bile and urine,"iron excretion [5]; po 300 μmol/kg, capsules, 48 h",97/3
same,"Performance ratio (PR), mean ICEprimates/ICErodents","iron excretion [6]; primates po, capsule",1.0
same,"Performance ratio (PR), mean ICEprimates/ICErodents","iron excretion [6]; primates po, sodium salt",1.1
same,LogPapp,[3],−0.89
same,nephrotoxicity,[9],the renal toxicity virtually disappeared
same,Primate Iron-Clearing Efficiency (%),iron excretion [7]; capsule,26.3 ± 9.9%
same,Primate Iron-Clearing Efficiency (%),iron excretion [7]; sodium salt,28.7 ± 12.4%
same,relative percentages of the iron excreted in the feces and urine,iron excretion [7]; capsule,93/7
same,relative percentages of the iron excreted in the feces and urine,iron excretion [7]; sodium salt,83/17
same,BUN and SCr,urinary Kim-1 excretion [10]; [13],well within the normal range
same,survival of dosing period,urinary Kim-1 excretion [10]; [13],All of the rats survived the dosing period
same,urinary Kim-1 content versus baseline (day 0),urinary Kim-1 excretion [10]; [13],stayed within error of this value
same,"renal toxicity (Kim-1, BUN, SCr), summary","urinary Kim-1 excretion [10]; rat, in vivo",little to no impact on renal function
COCCOCCOc1cccc(C2=N[C@@](C)(C(=O)O)CS2)c1O [compound 9],Rodent Iron-Clearing Efficiency (%),"iron excretion [5]; po 300 μmol/kg, monosodium salt, 48-h sample collection",15.1 ± 2.0%
same,relative percentages of the iron excreted in the bile and urine,"iron excretion [5]; po 300 μmol/kg, monosodium salt, 48 h",99/1
same,LogPapp,[3],−0.96
same,Primate Iron-Clearing Efficiency (%),iron excretion [7],22.5 ± 6.4%
same,relative percentages of the iron excreted in the feces and urine,iron excretion [7],86/14
